Laboratory results as given in ChEMBL document CHEMBL3526000 (Drug Metab Dispos, 2012).

Key:
[1] = biological target: T1, UDP-glucuronosyltransferase 1A3 (Homo sapiens, UniProt P35503); test: Drug metabolism assessed as recombinant human UGT1A3 assessed as O-glucuronidation at 100 uM incubated for 60 mins by LC-MS/MS analysis; assay type: ADME; details: recombinant enzyme, 1 h
T1 sequence (P35503 whole entry): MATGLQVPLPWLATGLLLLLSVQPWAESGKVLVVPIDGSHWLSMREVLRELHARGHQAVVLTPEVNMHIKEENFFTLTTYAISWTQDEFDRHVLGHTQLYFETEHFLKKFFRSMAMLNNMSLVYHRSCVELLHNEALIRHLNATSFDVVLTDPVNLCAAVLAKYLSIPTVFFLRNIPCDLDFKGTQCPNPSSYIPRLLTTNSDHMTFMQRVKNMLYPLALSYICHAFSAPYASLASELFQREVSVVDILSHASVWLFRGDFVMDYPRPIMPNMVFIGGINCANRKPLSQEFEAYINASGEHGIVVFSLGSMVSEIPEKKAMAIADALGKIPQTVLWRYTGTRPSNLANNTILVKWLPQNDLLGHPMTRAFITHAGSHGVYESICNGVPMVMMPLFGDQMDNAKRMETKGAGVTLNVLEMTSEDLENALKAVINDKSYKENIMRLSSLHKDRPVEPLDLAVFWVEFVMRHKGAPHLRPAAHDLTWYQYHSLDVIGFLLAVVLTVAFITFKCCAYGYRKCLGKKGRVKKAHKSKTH

[2] = biological target: T2, UDP-glucuronosyltransferase 2B17 (Homo sapiens, UniProt O75795); test: Drug metabolism assessed as recombinant human UGT2B17 assessed as N-glucuronidation at 100 uM incubated for 60 mins by LC-MS/MS analysis; assay type: ADME; details: recombinant enzyme, 1 h
T2 sequence (O75795 whole entry): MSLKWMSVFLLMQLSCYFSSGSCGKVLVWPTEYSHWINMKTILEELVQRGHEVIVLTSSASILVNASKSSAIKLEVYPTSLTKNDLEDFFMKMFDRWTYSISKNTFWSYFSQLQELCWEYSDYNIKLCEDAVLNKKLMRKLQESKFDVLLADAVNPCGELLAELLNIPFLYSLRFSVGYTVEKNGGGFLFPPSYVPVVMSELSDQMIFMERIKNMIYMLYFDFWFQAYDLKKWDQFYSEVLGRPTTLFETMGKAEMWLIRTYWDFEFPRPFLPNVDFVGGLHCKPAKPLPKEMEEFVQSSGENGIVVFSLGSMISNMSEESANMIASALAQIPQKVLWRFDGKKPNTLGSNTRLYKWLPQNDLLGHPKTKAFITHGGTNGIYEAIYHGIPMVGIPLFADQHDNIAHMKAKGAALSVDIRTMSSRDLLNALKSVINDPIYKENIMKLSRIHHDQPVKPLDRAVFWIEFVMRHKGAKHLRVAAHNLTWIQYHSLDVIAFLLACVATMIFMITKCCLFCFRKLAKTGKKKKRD

[3] = biological target: T3, UDP-glucuronosyltransferase 2B15 (Homo sapiens, UniProt P54855); test: Drug metabolism assessed as recombinant human UGT2B15 assessed as N-glucuronidation at 100 uM incubated for 60 mins by LC-MS/MS analysis; assay type: ADME; details: recombinant enzyme, 1 h
T3 sequence (P54855 whole entry): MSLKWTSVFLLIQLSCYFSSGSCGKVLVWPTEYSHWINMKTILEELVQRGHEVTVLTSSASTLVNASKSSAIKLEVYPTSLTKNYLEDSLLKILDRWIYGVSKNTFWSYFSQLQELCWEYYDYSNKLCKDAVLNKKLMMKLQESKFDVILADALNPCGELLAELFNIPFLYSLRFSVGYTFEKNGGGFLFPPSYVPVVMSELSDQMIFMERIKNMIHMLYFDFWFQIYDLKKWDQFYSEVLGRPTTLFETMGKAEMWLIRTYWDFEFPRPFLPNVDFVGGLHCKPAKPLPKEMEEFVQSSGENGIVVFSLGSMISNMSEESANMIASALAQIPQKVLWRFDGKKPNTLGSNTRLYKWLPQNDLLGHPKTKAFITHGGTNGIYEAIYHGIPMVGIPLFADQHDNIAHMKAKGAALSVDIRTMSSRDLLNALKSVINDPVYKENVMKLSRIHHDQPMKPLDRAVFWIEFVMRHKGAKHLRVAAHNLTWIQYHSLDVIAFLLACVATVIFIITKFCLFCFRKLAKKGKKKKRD

[4] = biological target: T4, UDP-glucuronosyltransferase 1A8 (Homo sapiens, UniProt Q9HAW9); test: Drug metabolism assessed as recombinant human UGT1A8 assessed as N-glucuronidation at 100 uM incubated for 60 mins by LC-MS/MS analysis; assay type: ADME; details: recombinant enzyme, 1 h
T4 sequence (Q9HAW9 whole entry): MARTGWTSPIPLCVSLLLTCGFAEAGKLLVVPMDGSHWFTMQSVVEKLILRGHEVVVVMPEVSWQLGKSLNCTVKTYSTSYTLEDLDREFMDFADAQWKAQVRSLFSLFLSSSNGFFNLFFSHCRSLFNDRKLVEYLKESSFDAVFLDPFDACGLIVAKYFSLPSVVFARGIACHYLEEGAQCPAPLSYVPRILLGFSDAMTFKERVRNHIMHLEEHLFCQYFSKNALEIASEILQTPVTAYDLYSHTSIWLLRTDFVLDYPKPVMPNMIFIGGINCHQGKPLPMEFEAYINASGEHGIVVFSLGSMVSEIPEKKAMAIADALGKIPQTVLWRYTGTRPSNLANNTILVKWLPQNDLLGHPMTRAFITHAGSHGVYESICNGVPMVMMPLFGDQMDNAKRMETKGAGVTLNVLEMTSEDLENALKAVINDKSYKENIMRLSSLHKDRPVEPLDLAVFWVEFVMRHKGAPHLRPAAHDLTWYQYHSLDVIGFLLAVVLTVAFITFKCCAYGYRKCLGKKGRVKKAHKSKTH

[5] = biological target: T5, UDP-glucuronosyltransferase 2B7 (Homo sapiens, UniProt P16662); test: Drug metabolism assessed as recombinant human UGT2B7 assessed as O-glucuronidation measured as inhibition constant at 10 to 400 uM incubated for 60 mins by LC-MS/MS analysis
T5 sequence (P16662 whole entry): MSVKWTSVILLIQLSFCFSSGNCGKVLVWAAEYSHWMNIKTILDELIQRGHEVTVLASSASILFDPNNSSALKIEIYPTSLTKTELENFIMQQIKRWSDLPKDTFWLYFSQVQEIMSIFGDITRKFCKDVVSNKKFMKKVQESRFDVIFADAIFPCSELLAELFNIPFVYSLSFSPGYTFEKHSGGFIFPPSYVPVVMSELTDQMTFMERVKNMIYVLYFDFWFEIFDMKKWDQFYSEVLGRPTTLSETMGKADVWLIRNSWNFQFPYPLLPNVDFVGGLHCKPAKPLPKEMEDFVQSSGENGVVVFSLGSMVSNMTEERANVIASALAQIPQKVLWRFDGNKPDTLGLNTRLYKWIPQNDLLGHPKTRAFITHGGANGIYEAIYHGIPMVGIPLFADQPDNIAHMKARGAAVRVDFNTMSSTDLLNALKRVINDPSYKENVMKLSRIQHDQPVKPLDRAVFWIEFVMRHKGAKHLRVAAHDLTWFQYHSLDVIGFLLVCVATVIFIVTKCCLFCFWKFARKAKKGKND

Drug metabolism [1]: metabolite_not_detected
Drug metabolism [2]: metabolite_not_detected
Drug metabolism [3]: metabolite_not_detected
Drug metabolism [4]: metabolite_not_detected
Ki [5]: 590 µM
SMILES: O=C(CCCN1CCC(O)(c2ccc(Cl)cc2)CC1)c1ccc(F)cc1 [HALOPERIDOL]
